Source: paper PMC7067268, “Biosynthesis of plant tetrahydroisoquinoline alkaloids through an imine reductase route” (Chemical Science, 2019)
Like-named read-outs stand apart in the source and are kept apart here.

Assays:
[1] = tested on: IR45; assay: imine reduction kinetics; settings: read-out: F190L-W191F / K m; NADPH-dependent
[2] = tested on: IR45; assay: imine reduction kinetics; settings: read-out: IR45 / K m; NADPH-dependent
[3] = tested on: IR45; assay: imine reduction kinetics; settings: read-out: F190M-W191F / K m; NADPH-dependent
[4] = tested on: COc1ccc(C[C@@H]2NCCc3cc(OC)c(OC)cc32)cc1OC; assay: purified protein; settings: co-substrate S-adenosylmethionine
[5] = tested on: COc1cc2c(cc1OC)[C@H](c1ccc3c(c1)OCO3)NCC2; assay: purified protein; settings: co-substrate S-adenosylmethionine

Compound	Km [1]	Km [2]	Km [3]	Km [4]	kcat [4]	Km [5]	kcat [5]
COc1cc2c(cc1OC)C(c1ccc3c(c1)OCO3)=NCC2 [1a]	123 µM	154 µM	108 µM	–	–	–	–
COc1ccc(C2=NCCc3cc(OC)c(OC)cc32)cc1OC [2a]	307 µM	–	–	–	–	–	–
COc1cc2c(cc1OC)C(c1cc(OC)c(OC)c(OC)c1)=NCC2 [3a]	372 µM	–	–	–	–	–	–
COc1cc2c(cc1OC)C(Cc1ccccc1)=NCC2 [4a]	252 µM	148 µM	251 µM	–	–	–	–
COc1ccc(CC2=NCCc3cc(OC)c(OC)cc32)cc1OC [5a]	353 µM	518 µM	178 µM	–	–	–	–
Coclaurine N-methyltransferase (CNMT) (Coptis japonica)	–	–	–	807 ± 208 µM	0.296 ± 0.042 s⁻¹	806 ± 198 µM	0.098 ± 0.031 s⁻¹
